SMILES strings stand for the structures.

Sequence of human TRPA1 (O75762 whole entry, the tested form may be a part): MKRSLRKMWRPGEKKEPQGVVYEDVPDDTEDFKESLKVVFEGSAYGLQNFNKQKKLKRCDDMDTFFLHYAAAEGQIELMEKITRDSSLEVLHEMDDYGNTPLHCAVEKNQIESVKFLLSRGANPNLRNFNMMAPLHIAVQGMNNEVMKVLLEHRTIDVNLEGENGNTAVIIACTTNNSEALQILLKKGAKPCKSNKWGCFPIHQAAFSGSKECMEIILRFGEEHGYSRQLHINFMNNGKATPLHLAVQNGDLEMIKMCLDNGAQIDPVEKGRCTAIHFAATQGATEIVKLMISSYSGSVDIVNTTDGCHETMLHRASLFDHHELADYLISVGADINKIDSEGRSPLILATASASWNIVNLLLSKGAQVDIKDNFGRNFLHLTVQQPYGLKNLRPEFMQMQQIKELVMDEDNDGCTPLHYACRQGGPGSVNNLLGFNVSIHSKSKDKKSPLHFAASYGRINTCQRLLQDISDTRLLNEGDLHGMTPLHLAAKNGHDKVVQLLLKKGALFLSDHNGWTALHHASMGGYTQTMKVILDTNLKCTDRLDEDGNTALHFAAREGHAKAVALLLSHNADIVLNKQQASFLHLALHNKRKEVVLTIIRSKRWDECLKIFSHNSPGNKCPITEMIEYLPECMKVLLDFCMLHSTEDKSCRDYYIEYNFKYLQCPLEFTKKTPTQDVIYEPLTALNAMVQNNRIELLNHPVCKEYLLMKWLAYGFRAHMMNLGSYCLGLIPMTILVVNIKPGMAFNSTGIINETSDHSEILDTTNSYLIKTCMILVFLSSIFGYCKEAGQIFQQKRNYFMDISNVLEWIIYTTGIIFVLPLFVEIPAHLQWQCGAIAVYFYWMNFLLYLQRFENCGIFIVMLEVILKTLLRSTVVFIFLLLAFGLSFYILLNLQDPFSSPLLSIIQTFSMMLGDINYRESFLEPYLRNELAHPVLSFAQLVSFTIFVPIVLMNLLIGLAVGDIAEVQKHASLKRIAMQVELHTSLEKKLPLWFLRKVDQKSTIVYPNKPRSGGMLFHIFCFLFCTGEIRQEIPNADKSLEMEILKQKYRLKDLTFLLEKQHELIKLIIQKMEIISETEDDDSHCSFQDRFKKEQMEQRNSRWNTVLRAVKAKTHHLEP

This test concerns the target human TRPA1 (Homo sapiens (Human), UniProt O75762). Kind of test: In vitro inhibition of human TRPA1, whole cell patch configuration. It counts as cell-based. The settings on record: current activation 10 μM AITC, tested concentrations 320 pM to 3.2 μM, read-out: hTRPA1 IC50. The procedure, abridged: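 Whole-cell patch clamp, bath 150 mM NaCl, 10 mM HEPES, 1 mM EGTA, 3 mM MgCl2, pH 7.4 (sometimes 2 mM CaCl2, 1 mM MgCl2). Currents recorded continuously at −60 mV or by 400 ms ramps from −40 mV holding every 4 s; inward/outward currents taken at −80/80 mV, with controlled-temperature focal perfusion.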
For `Cc1nc(Cn2c(=O)c3c(ncn3CC(=O)Nc3cccc(-c4cnc(C)c(C(F)(F)F)c4)n3)n(C)c2=O)no1` [Compound 240], the IC50 turned out to be 7 nM.
With `Cc1noc(Cn2c(=O)c3c(ncn3CC(=O)Nc3cccc(-c4cnc(C)c(C(F)(F)F)c4)n3)n(C)c2=O)n1` [Compound 241] the figure was 1 nM; with `CC(=O)CCn1c(=O)c2c(ncn2CC(=O)Nc2cccc(-c3cnc(C)c(C(F)(F)F)c3)n2)n(C)c1=O` [Compound 242, 2-(3-methyl-2,6-dioxo-1-(3-oxobutyl)-2,3-dihydro-1H-purin-7(6H)-yl)-N-(6′-methyl-5′-(trifluoromethyl)-[2,3′-bipyridin]-6-yl)acetamide], 290 nM; with `CCC(=O)Cn1c(=O)c2c(ncn2CC(=O)Nc2cncc(-c3cnc(C)c(C(F)(F)F)c3)n2)n(C)c1=O` [Compound 243, 2-(3-methyl-2,6-dioxo-1-(2-oxobutyl)-2,3-dihydro-1H-purin-7(6H)-yl)-N-(6-(6-methyl-5-(trifluoromethyl)pyridin-3-yl)pyrazin-2-yl)acetamide], 6 nM.
Consider `CC(=O)Cn1c(=O)c2c(ncn2CC(=O)Nc2cncc(-c3cnc(C)c(C(F)(F)F)c3)n2)n(C)c1=O` [Compound 245, 2-(3-methyl-2,6-dioxo-1-(2-oxopropyl)-2,3-dihydro-1H-purin-7(6H)-yl)-N-(6-(6-methyl-5-(trifluoromethyl)pyridin-3-yl)pyrazin-2-yl)acetamide], for which the IC50 was determined as 8 nM.
The same measure for `Cc1cc(Cn2c(=O)c3c(ncn3CC(=O)Nc3csc(-c4cnc(C)c(C(F)(F)F)c4)n3)n(C)c2=O)no1` [Compound 246, 2-(3-methyl-1-((5-methylisoxazol-3-yl)methyl)-2,6-dioxo-2,3-dihydro-1H-purin-7(6H)-yl)-N-(2-(6-methyl-5-(trifluoromethyl)pyridin-3-yl)thiazol-4-yl)acetamide]: 1 nM.
With `CCC(=O)Cn1c(=O)c2c(ncn2CC(=O)Nc2csc(-c3cnc(C)c(C(F)(F)F)c3)n2)n(C)c1=O` [Compound 247, 2-(3-methyl-2,6-dioxo-1-(2-oxobutyl)-2,3-dihydro-1H-purin-7(6H)-yl)-N-(2-(6-methyl-5-(trifluoromethyl)pyridin-3-yl)thiazol-4-yl)acetamide] the figure was 2 nM; with `Cc1nc(Cn2c(=O)c3c(ncn3CC(=O)Nc3csc(-c4cnc(C)c(C(F)(F)F)c4)n3)n(C)c2=O)no1` [Compound 248, 2-(3-methyl-1-((5-methyl-1,2,4-oxadiazol-3-yl)methyl)-2,6-dioxo-2,3-dihydro-1H-purin-7(6H)-yl)-N-(2-(6-methyl-5-(trifluoromethyl)pyridin-3-yl)thiazol-4-yl)acetamide], 4 nM; with `CCC(=O)Cn1c(=O)c2c(ncn2CC(=O)Nc2csc(-c3cnc(C(F)(F)F)c(C)c3)n2)n(C)c1=O` [Compound 249, 2-(3-methyl-2,6-dioxo-1-(2-oxobutyl)-2,3-dihydro-1H-purin-7(6H)-yl)-N-(2-(5-methyl-6-(trifluoromethyl)pyridin-3-yl)thiazol-4-yl)acetamide], 6 nM.
The same measure for `Cc1noc(Cn2c(=O)c3c(ncn3CC(=O)Nc3csc(-c4cnc(C(F)(F)F)c(C)c4)n3)n(C)c2=O)n1` [Compound 250, 2-(3-methyl-1-((3-methyl-1,2,4-oxadiazol-5-yl)methyl)-2,6-dioxo-2,3-dihydro-1H-purin-7(6H)-yl)-N-(2-(5-methyl-6-(trifluoromethyl)pyridin-3-yl)thiazol-4-yl)acetamide]: 6 nM.
For `Cc1cc(-c2nc(NC(=O)Cn3cnc4c3c(=O)n(CC(F)(F)F)c(=O)n4C)cs2)cnc1C(F)(F)F` [Compound 251, 2-(3-methyl-2,6-dioxo-1-(2,2,2-trifluoroethyl)-2,3-dihydro-1H-purin-7(6H)-yl)-N-(2-(5-methyl-6-(trifluoromethyl)pyridin-3-yl)thiazol-4-yl)acetamide], the IC50 was 219 nM.
The same measure for `Cc1noc(Cn2c(=O)c3c(ncn3CC(=O)Nc3csc(-c4cnc(C)c(C(F)(F)F)c4)n3)n(C)c2=O)n1` [Compound 252, 2-(3-methyl-1-((3-methyl-1,2,4-oxadiazol-5-yl)methyl)-2,6-dioxo-2,3-dihydro-1H-purin-7(6H)-yl)-N-(2-(6-methyl-5-(trifluoromethyl)pyridin-3-yl)thiazol-4-yl)acetamide]: 1 nM.
On to `COCC(=O)Cn1c(=O)c2c(ncn2CC(=O)Nc2csc(-c3cnc(C)c(C(F)(F)F)c3)n2)n(C)c1=O` [Compound 254, 2-(1-(3-methoxy-2-oxopropyl)-3-methyl-2,6-dioxo-2,3-dihydro-1H-purin-7(6H)-yl)-N-(2-(6-methyl-5-(trifluoromethyl)pyridin-3-yl)thiazol-4-yl)acetamide], for which the IC50 is 14 nM.
With `COCC(=O)Cn1c(=O)c2c(ncn2CC(=O)Nc2csc(-c3cnc(C(F)(F)F)c(C)c3)n2)n(C)c1=O` [Compound 255, 2-(1-(3-methoxy-2-oxopropyl)-3-methyl-2,6-dioxo-2,3-dihydro-1H-purin-7(6H)-yl)-N-(2-(5-methyl-6-(trifluoromethyl)pyridin-3-yl)thiazol-4-yl)acetamide] the figure was 13 nM; with `CCC(=O)Cn1c(=O)c2c(ncn2[C@@H](C)C(=O)Nc2cccc(-c3cnc(N4CC5C(C4)C5(F)F)cn3)n2)n(C)c1=O` (stereo partly drawn) [Compound 256, (2S)—N-(6-(5-(6,6-difluoro-3-azabicyclo[3.1.0]hexan-3-yl)pyrazin-2-yl)pyridin-2-yl)-2-(3-methyl-2,6-dioxo-1-(2-oxobutyl)-2,3-dihydro-1H-purin-7(6H)-yl)propanamide], 5 nM.
The same measure for `CC(=O)Cn1c(=O)c2c(ncn2[C@@H](C)C(=O)Nc2cccc(-c3cnc(N4CC5C(C4)C5(F)F)cn3)n2)n(C)c1=O` (stereo partly drawn) [Compound 257, (2S)—N-(6-(5-(6,6-difluoro-3-azabicyclo[3.1.0]hexan-3-yl)pyrazin-2-yl)pyridin-2-yl)-2-(3-methyl-2,6-dioxo-1-(2-oxopropyl)-2,3-dihydro-1H-purin-7(6H)-yl)propanamide]: 11 nM; for `COCC(=O)Cn1c(=O)c2c(ncn2[C@@H](C)C(=O)Nc2cccc(-c3ccc(N4CC5C(C4)C5(F)F)nc3)n2)n(C)c1=O` (stereo partly drawn) [Compound 258, (2S)—N-(6′-(6,6-difluoro-3-azabicyclo[3.1.0]hexan-3-yl)-[2,3′-bipyridin]-6-yl)-2-(1-(3-methoxy-2-oxopropyl)-3-methyl-2,6-dioxo-2,3-dihydro-1H-purin-7(6H)-yl)propanamide]: 7 nM; for `Cc1cc(Cn2c(=O)c3c(ncn3CC(=O)Nc3csc(-c4cnc(C(F)(F)F)nc4)n3)n(C)c2=O)no1` [Compound 259, 2-(3-methyl-1-((5-methylisoxazol-3-yl)methyl)-2,6-dioxo-2,3-dihydro-1H-purin-7(6H)-yl)-N-(2-(2-(trifluoromethyl)pyrimidin-5-yl)thiazol-4-yl)acetamide]: 17 nM.
The same measure for `Cc1noc(Cn2c(=O)c3c(ncn3CC(=O)Nc3csc(-c4cnc(C(F)(F)F)nc4)n3)n(C)c2=O)n1` [Compound 260, 2-(3-methyl-1-((3-methyl-1,2,4-oxadiazol-5-yl)methyl)-2,6-dioxo-2,3-dihydro-1H-purin-7(6H)-yl)-N-(2-(2-(trifluoromethyl)pyrimidin-5-yl)thiazol-4-yl)acetamide]: 17 nM; for `CC#CCn1c(=O)c2c(ncn2[C@@H](C)C(=O)Nc2cncc(-c3cnc(N4CC5CC5C4)nc3)n2)n(C)c1=O` (some centres unmarked) [Compound 261]: 5 nM.
On to `CC#CCn1c(=O)c2c(ncn2[C@@H](C)C(=O)Nc2csc(-c3ccc(N4CC5C(C4)C5(F)F)nc3)n2)n(C)c1=O` (stereo partly drawn) [Compound 262, (2S)-2-(1-(but-2-yn-1-yl)-3-methyl-2,6-dioxo-2,3-dihydro-1H-purin-7(6H)-yl)-N-(2-(6-(6,6-difluoro-3-azabicyclo[3.1.0]hexan-3-yl)pyridin-3-yl)thiazol-4-yl)propanamide], for which the IC50 came out at 1 nM.
The same measure for `CC#CCn1c(=O)c2c(ncn2[C@@H](C)C(=O)Nc2csc(-c3ccc(N4CC5CC5C4)nc3)n2)n(C)c1=O` (stereo partly drawn) [Compound 263, (2S)—N-(2-(6-(3-azabicyclo[3.1.0]hexan-3-yl)pyridin-3-yl)thiazol-4-yl)-2-(1-(but-2-yn-1-yl)-3-methyl-2,6-dioxo-2,3-dihydro-1H-purin-7(6H)-yl)propanamide]: 4 nM; for `COCC(=O)Cn1c(=O)c2c(ncn2[C@@H](C)C(=O)Nc2csc(-c3cnc(N4CC5CC5C4)cn3)n2)n(C)c1=O` (stereo partly drawn) [Compound 264, (2S)—N-(2-(5-(3-azabicyclo[3.1.0]hexan-3-yl)pyrazin-2-yl)thiazol-4-yl)-2-(1-(3-methoxy-2-oxopropyl)-3-methyl-2,6-dioxo-2,3-dihydro-1H-purin-7(6H)-yl)propanamide]: 31 nM; for `COCC(=O)Cn1c(=O)c2c(ncn2[C@@H](C)C(=O)Nc2csc(-c3cnc(N4CC5C(C4)C5(F)F)nc3)n2)n(C)c1=O` (stereo partly drawn) [Compound 265, (2S)—N-(2-(2-(6,6-difluoro-3-azabicyclo[3.1.0]hexan-3-yl)pyrimidin-5-yl)thiazol-4-yl)-2-(1-(3-methoxy-2-oxopropyl)-3-methyl-2,6-dioxo-2,3-dihydro-1H-purin-7(6H)-yl)propanamide]: 3 nM.
The same measure for `COCC(=O)Cn1c(=O)c2c(ncn2[C@@H](C)C(=O)Nc2cccc(-c3cnc(N4CC5CC5C4)cn3)n2)n(C)c1=O` (stereo partly drawn) [Compound 266, (2S)—N-(6-(5-(3-azabicyclo[3.1.0]hexan-3-yl)pyrazin-2-yl)pyridin-2-yl)-2-(1-(3-methoxy-2-oxopropyl)-3-methyl-2,6-dioxo-2,3-dihydro-1H-purin-7(6H)-yl)propanamide]: 7 nM; for `CC#CCn1c(=O)c2c(ncn2[C@@H](C)C(=O)Nc2csc(-c3cnc(N4CC5C(C4)C5(F)F)nc3)n2)n(C)c1=O` (stereo partly drawn) [Compound 267, (2S)-2-(1-(but-2-ynyl)-3-methyl-2,6-dioxo-2,3-dihydro-1H-purin-7(6H)-yl)-N-(2-(2-(6,6-difluoro-3-azabicyclo[3.1.0]hexan-3-yl)pyrimidin-5-yl)thiazol-4-yl)propanamide]: 2 nM.

For the origin of these results see patent US10221177B2 (HYDRA BIOSCIENCES, INC., priority 2014, dated 2019).
